From patent US10898469B2, “Imidazolylamide derivative” (Sumitomo Dainippon Pharma Co., Ltd., priority 2016, dated 2021) come the findings set out here.

Where only a bound is given, the exact number is not on record here.

Common to all, as to assay type: cell-based, human
Experiment [1] has as its system HCT-116 cells. In words: Inhibition test for sphere-forming ability of cancer cells in the presence of BSA (Test Example 2), HCT-116. The note with it: for IC50: HCT-116 cells, in the presence of 5% BSA, cultured 4 days; for inhibitory effect on the sphere-forming ability of cancer cells: Test Example 2, in the presence of 5% BSA, summary in words, cell line not given (HCT-116, HT-29, FaDu tested). The protocol:
(§1) Human colorectal cancer-derived HCT-116 cells, human colon-adenocarcinoma-derived HT-29 cells, and human pharyngeal cancer-derived FaDu cells were available from American Type Culture Collection (ATCC). HCT-116 cells and HT-29 cells were cultured at 37° C. under 5% CO2 using the McCoy's 5a medium containing 10% fetal bovine serum (FBS) and 1% penicillin/streptomycin, and FaDu cells were cultured at 37° C. under 5% CO2 using the MEM medium containing 10% FBS, 1% non-essential amino acid, 1% sodium pyruvate, 5% bovine serum albumin (BSA), and 1% penicillin/streptomycin. HCT-116 cells, HT-29 cells, and FaDu cells were seeded in a 384 Well Black Clear Bottom Ultra-Low Attachment Microplate (Corning Cat. No. 3827) in an amount of 350-800 cells/well using the DMEM/F12 medium containing 2% B27 supplement (GIBCO), 20 ng/mL epidermal growth factor (EGF) (peprotech), 10 ng/mL basic fibroblast growth factor (bFGF) (peprotech), 5 μg/mL insulin (Sigma), 5% bovine serum albumin (BSA), and 1% penicillin/streptomycin. Each test compound was added into each well to adjust the final concentration of DMSO to 0.1%, and the cells were cultured for 4 days. The number of viable cells in each well was then measured with CellTiter-Glo® Luminescent Cell Viability Assay (Promega) to calculate the concentration of each test compound for 50% inhibition of cell proliferation (Sphere IC50 value; μmol/L).
(§2) The experiment of Test Example 2 was performed for each compound of each Example.
(§3) The concentration of each test compound for 50% inhibition of cell proliferation (Sphere IC50 value; μmol/L) is shown in the following Table.

Experiment [2] relates to HT-29 cells. In words: Inhibition test for sphere-forming ability of cancer cells in the presence of BSA (Test Example 2), HT-29. The conditions noted are these: in the presence of 5% BSA, cultured 4 days. The protocol:
as §1, §2, §3

The test system of experiment [3] is HT-29 cells. In words: Inhibition test for sphere-forming ability of cancer cells (Test Example 1), HT-29. The conditions noted are these: concentration for 50% inhibition of cell proliferation, read-out: IC50 (μmol/L) HT-29 (Sphere IC50 value). Summed up:
(§4)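 Cells were seeded at 350-800 cells/well in ultra-low-attachment plates in serum-free DMEM/F12 with 2% B27, 20 ng/mL EGF, 10 ng/mL bFGF and 5 μg/mL insulin. Compounds were added at 0.1% final DMSO for 4 days. Viable cells were read by CellTiter-Glo luminescence to give Sphere IC50 (μmol/L).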

Experiment [4] relates to HCT-116 cells. Briefly: Inhibition test for sphere-forming ability of cancer cells (Test Example 1), HCT-116. The conditions noted are these: for IC50: HCT-116 cells, concentration for 50% inhibition of cell proliferation, read-out: IC50 (μmol/L) HCT-116 (Sphere IC50 value); for inhibitory effect on the sphere-forming ability of cancer cells: Test Example 1, summary in words, cell line not given (HCT-116, HT-29, FaDu tested). Summed up: as §4

Consider `O=C(Nc1cccnc1)c1cn(Cc2cccc(Cl)c2)cn1` [Example 264], for which the IC50 with HCT-116 cells [1] is over 10000 nM; in the experiment on HT-29 cells [2] it was 6270 nM; in the experiment with HT-29 cells [3] it was 6.04 µmol/L; in the experiment on HCT-116 cells [4], 8.49 µmol/L.
Turning to `O=C(Nc1cn(Cc2cccc(C(F)(F)F)c2)cn1)c1cnc2cnccc2c1` [Example 192], the IC50 in the experiment with HCT-116 cells [1] was 70 nM; in the experiment with HT-29 cells [2] it was 70 nM; in the experiment on HT-29 cells [3], under 0.01 µmol/L; with HCT-116 cells [4], 0.05 µmol/L. The “inhibitory effect on the sphere-forming ability of cancer cells” value (“inhibitory effect” for short) with HCT-116 cells [1] and in the experiment with HCT-116 cells [4] was “particularly potent inhibitory effect” in each case.
Consider `O=C(Nc1cn(Cc2cccc(Cl)c2)cn1)c1ccc2cnccc2c1` [Example 191], for which the IC50 with HCT-116 cells [1] was found to be 690 nM; with HT-29 cells [2], 530 nM; in the experiment with HT-29 cells [3], 0.09 µmol/L; in the experiment with HCT-116 cells [4], 0.31 µmol/L. Further, in the experiment on HCT-116 cells [4], the “inhibitory effect” value is listed as “particularly potent inhibitory effect”.
In the case of `O=C(/C=C/c1cccnc1)Nc1cn(Cc2cc(F)c(F)c(F)c2)cn1` [Example 231], the IC50 turned out to be 700 nM in the experiment with HCT-116 cells [1] (Homo sapiens, HCT-116, 96 h); 520 nM in the experiment on HT-29 cells [2] (Homo sapiens, 96 h); 0.07 µmol/L in the experiment on HT-29 cells [3] (Homo sapiens); 0.56 µmol/L with HCT-116 cells [4] (Homo sapiens). The “inhibitory effect” value with HCT-116 cells [4] is on record as “particularly potent inhibitory effect”.
As to `O=C(Nc1cn(Cc2cc(F)c(F)c(F)c2)cn1)c1ccc2cnccc2c1` [Example 190], the IC50 is 270 nM in the experiment on HCT-116 cells [1], 60 nM in the experiment on HT-29 cells [2], 0.06 µmol/L in the experiment on HT-29 cells [3] and 0.06 µmol/L in the experiment on HCT-116 cells [4]. In addition, the “inhibitory effect” value in the experiment with HCT-116 cells [4] is reported as “particularly potent inhibitory effect”.
For the compound `O=C(Nc1cn(Cc2cccc(C(F)(F)F)c2)cn1)c1ccc(NCC(F)(F)F)nc1` [Example 249], the IC50 with HCT-116 cells [1] (Homo sapiens, HCT-116, 96 h) is 2420 nM; in the experiment with HT-29 cells [2] (Homo sapiens, 96 h), 490 nM; in the experiment on HT-29 cells [3] (Homo sapiens), 0.29 µmol/L; in the experiment with HCT-116 cells [4] (Homo sapiens), 0.49 µmol/L.
On to `C=Cc1ncc(C(=O)Nc2cn(Cc3cccc(C(F)(F)F)c3)cn2)cc1OC` [Example 100], for which the IC50 in the experiment with HCT-116 cells [1] (Homo sapiens, HCT-116, 96 h) came to 8380 nM; with HT-29 cells [2] (Homo sapiens, 96 h) it was 6330 nM; in the experiment with HT-29 cells [3] (Homo sapiens), 1.96 µmol/L; in the experiment with HCT-116 cells [4] (Homo sapiens), 6.63 µmol/L.
Turning to `O=C(Nc1cn(Cc2cccc(C(F)(F)F)c2)cn1)c1ccc2cnccc2n1` [Example 193], the IC50 amounted to 600 nM in the experiment with HCT-116 cells [1], 610 nM in the experiment with HT-29 cells [2], 0.06 µmol/L in the experiment with HT-29 cells [3] and 0.07 µmol/L with HCT-116 cells [4]. In the experiment on HCT-116 cells [4], the “inhibitory effect” value is given as “particularly potent inhibitory effect”.
For the compound `COc1cc(C(=O)Nc2cn(Cc3cccc(C(F)(F)F)c3)cn2)cnc1Cl` [Example 228], the IC50 with HCT-116 cells [1] is over 10000 nM; in the experiment with HT-29 cells [2] it was 4880 nM; with HT-29 cells [3], 4.17 µmol/L; in the experiment on HCT-116 cells [4] it was 6.39 µmol/L.
The corresponding values for `COc1ccc(NC(=O)c2cn(Cc3cccc(Cl)c3)cn2)cc1OC` [Example 262] are 6050 nM, 720 nM, 0.6 µmol/L and 0.83 µmol/L.
Turning to `CC(=O)Nc1ccc(/C=C/C(=O)Nc2cn(Cc3cccc(C(F)(F)F)c3)cn2)nc1` [Example 230], the IC50 was over 10000 nM in the experiment with HCT-116 cells [1] (Homo sapiens, HCT-116, 96 h); 5840 nM with HT-29 cells [2] (Homo sapiens, 96 h); 0.94 µmol/L with HT-29 cells [3] (Homo sapiens); 6.02 µmol/L with HCT-116 cells [4] (Homo sapiens).
As to `O=C(Nc1cn(Cc2cccc(C(F)(F)F)c2)cn1)c1cnc2ccccc2c1` [Example 181], the IC50 in the experiment on HCT-116 cells [1] worked out at 8000 nM; with HT-29 cells [2], 3310 nM; in the experiment on HT-29 cells [3] it was 0.19 µmol/L; with HCT-116 cells [4], 0.77 µmol/L.
For `COC(=O)c1ccc(OCC(=O)Nc2cn(Cc3cc(F)c(F)c(F)c3)cn2)cn1` [Example 132, Methyl 5-(2-oxo-2-{[1-(3,4,5-trifluorobenzyl)-1H-imidazol-4-yl]amino}ethoxy)picolinate], the IC50 is over 10000 nM in the experiment on HCT-116 cells [1] (Homo sapiens, HCT-116, 96 h); 6460 nM with HT-29 cells [2] (Homo sapiens, 96 h); 6.37 µmol/L in the experiment on HT-29 cells [3] (Homo sapiens); 8.22 µmol/L with HCT-116 cells [4] (Homo sapiens).
Regarding `O=C(Nc1ccc(CO)cc1)c1cn(Cc2cc(F)c(F)c(F)c2)cn1` [Example 253], the IC50 in the experiment on HCT-116 cells [1] worked out at 570 nM; in the experiment with HT-29 cells [2], 70 nM; with HT-29 cells [3], 0.08 µmol/L; with HCT-116 cells [4], 0.07 µmol/L. Moreover, the “inhibitory effect” value with HCT-116 cells [1] and with HCT-116 cells [4] was “particularly potent inhibitory effect” in each case.
For `COC(=O)c1ccc(/C=C/C(=O)Nc2cn(Cc3cccc(C(F)(F)F)c3)cn2)cn1` [Example 131, Methyl 5-[(1E)-3-oxo-3-({1-[3-(trifluoromethyl)benzyl]-1H-imidazol-4-yl}amino)prop-1-en-1-yl]picolinate], the IC50 with HCT-116 cells [1] (Homo sapiens, HCT-116, 96 h) is 9210 nM; in the experiment on HT-29 cells [2] (Homo sapiens, 96 h), 540 nM; in the experiment with HT-29 cells [3] (Homo sapiens), 8.71 µmol/L; in the experiment on HCT-116 cells [4] (Homo sapiens) it was over 10 µmol/L.
Taken in the same sequence, the figures for `COc1ccc(C(=O)Nc2cn(Cc3cccc(Cl)c3)c(C)n2)cc1OC` [Example 102] were over 10000 nM, 5960 nM, 4.07 µmol/L and 7.87 µmol/L.
With `O=C(Nc1cn(Cc2cccc(Cl)c2)cn1)c1cnc2ccccc2c1` [Example 138], the IC50 in the experiment on HCT-116 cells [1] was over 10000 nM; with HT-29 cells [2], 6140 nM; in the experiment with HT-29 cells [3] it was 0.2 µmol/L; with HCT-116 cells [4], 0.1 µmol/L. In the experiment with HCT-116 cells [4], the “inhibitory effect” value was “particularly potent inhibitory effect”.
For `O=C(Nc1cn(Cc2cccc(C(F)(F)F)c2)cn1)c1ccc(NCCO)nc1` [Example 248, 6-[(2-Hydroxyethyl)amino]-N-{1-[3-(trifluoromethyl)benzyl]-1H-imidazol-4-yl}nicotinamide], the IC50 amounted to 6500 nM with HCT-116 cells [1] (Homo sapiens, HCT-116, 96 h); 5130 nM in the experiment with HT-29 cells [2] (Homo sapiens, 96 h); 0.83 µmol/L in the experiment on HT-29 cells [3] (Homo sapiens); 1 µmol/L in the experiment on HCT-116 cells [4] (Homo sapiens).
Turning to `O=C(Nc1cn(Cc2cccc(C(F)(F)F)c2)cn1)c1cncnc1` [Example 180], the IC50 in the experiment on HCT-116 cells [1] was over 10000 nM; in the experiment with HT-29 cells [2], 4930 nM; in the experiment on HT-29 cells [3] it was 0.76 µmol/L; in the experiment with HCT-116 cells [4], 8.73 µmol/L.
The corresponding values for `O=C(Nc1cn(Cc2cccc(C(F)(F)F)c2)cn1)c1ccncn1` [Example 179] are 5960 nM, 5760 nM, 4.65 µmol/L and 2.91 µmol/L.
As for `Cc1ccc2cc(NC(=O)c3cn(Cc4cc(F)c(F)c(F)c4)cn3)ccc2n1` [Example 252], the IC50 in the experiment with HCT-116 cells [1] was 80 nM; with HT-29 cells [2], 50 nM; in the experiment with HT-29 cells [3], under 0.01 µmol/L; in the experiment with HCT-116 cells [4], 0.03 µmol/L. Besides, the “inhibitory effect” value in the experiment with HCT-116 cells [1] and in the experiment with HCT-116 cells [4] was “particularly potent inhibitory effect” each time.
Regarding `Cc1ccc2cc(NC(=O)c3cn(Cc4cccc(Cl)c4)cn3)ccc2n1` [Example 255, 1-(3-Chlorobenzyl)-N-(2-methylquinolin-6-yl)-1H-imidazole-4-carboxamide], the IC50 in the experiment on HCT-116 cells [1] (Homo sapiens, HCT-116, 96 h) was 630 nM; in the experiment with HT-29 cells [2] (Homo sapiens, 96 h), 390 nM; in the experiment with HT-29 cells [3] (Homo sapiens) it was under 0.01 µmol/L; with HCT-116 cells [4] (Homo sapiens), 0.06 µmol/L. Further, the “inhibitory effect” value with HCT-116 cells [4] is “particularly potent inhibitory effect”.
Turning to `O=C(Nc1cn(Cc2cccc(Cl)c2)cn1)c1ccc2ncccc2c1` [Example 137], the IC50 in the experiment with HCT-116 cells [1] was over 10000 nM; with HT-29 cells [2], 6130 nM; in the experiment on HT-29 cells [3], 0.57 µmol/L; with HCT-116 cells [4], 0.81 µmol/L.
